ChEMBL document CHEMBL3132822, “Novel 1-(1-benzyl-1H-indol-3-yl)-N,N,N-trimethylmethanaminium iodides are competitive antagonists for the human 42 and 7 nicotinic acetylcholine receptors” (Medchemcomm, 2013)

Assays:
Homo sapiens = organism: Homo sapiens; experiment: Selectivity ratio of IC50 for human alpha4beta2 nAChR to IC50 for human alpha7 nAChR
[1] = target: T1, Neuronal acetylcholine receptor; alpha4/beta2 (Homo sapiens, UniProt P17787+P43681); experiment: Antagonist activity at human alpha4beta2 nAChR expressed in HEK293 cells assessed as (+/-)-epibatidine-induced Ca2+ influx; assay type: cell-based
T1 sequence (P17787 whole entry): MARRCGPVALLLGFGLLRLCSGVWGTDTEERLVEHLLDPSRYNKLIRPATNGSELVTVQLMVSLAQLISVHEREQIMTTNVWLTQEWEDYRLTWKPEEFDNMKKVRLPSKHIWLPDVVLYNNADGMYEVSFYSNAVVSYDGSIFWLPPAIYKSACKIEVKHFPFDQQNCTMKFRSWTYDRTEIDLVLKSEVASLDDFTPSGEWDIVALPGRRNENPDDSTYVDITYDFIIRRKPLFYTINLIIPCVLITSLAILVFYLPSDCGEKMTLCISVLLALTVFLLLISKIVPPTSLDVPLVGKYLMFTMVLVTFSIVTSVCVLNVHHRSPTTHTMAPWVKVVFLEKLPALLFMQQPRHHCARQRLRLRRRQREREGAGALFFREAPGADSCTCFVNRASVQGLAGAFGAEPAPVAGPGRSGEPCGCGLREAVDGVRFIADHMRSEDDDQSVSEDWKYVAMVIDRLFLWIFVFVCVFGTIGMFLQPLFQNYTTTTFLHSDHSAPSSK
T1 sequence (P43681 whole entry): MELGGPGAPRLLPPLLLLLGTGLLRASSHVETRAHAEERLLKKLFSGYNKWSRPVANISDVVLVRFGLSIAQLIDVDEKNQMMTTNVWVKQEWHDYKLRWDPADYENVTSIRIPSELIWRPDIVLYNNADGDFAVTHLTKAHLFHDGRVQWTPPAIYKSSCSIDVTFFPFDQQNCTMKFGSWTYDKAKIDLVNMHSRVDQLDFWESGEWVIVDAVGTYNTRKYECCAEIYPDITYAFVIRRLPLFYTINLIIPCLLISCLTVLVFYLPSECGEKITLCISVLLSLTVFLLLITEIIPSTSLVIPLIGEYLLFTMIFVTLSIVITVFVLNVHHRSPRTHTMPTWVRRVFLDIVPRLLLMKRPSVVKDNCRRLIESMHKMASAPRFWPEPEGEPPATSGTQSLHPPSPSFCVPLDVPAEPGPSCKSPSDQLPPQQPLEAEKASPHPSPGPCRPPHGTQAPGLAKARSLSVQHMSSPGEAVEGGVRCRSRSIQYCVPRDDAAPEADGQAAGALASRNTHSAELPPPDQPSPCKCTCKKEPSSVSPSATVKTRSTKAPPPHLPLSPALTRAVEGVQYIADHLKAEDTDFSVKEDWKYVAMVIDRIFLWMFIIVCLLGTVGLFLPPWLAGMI

[2] = target: T2, Neuronal acetylcholine receptor subunit alpha-7 (Homo sapiens, UniProt P36544); experiment: Antagonist activity at human alpha7 nAChR expressed in rat GH3 cells assessed as (+/-)-epibatidine-induced Ca2+ influx; assay type: cell-based
T2 sequence (P36544 whole entry): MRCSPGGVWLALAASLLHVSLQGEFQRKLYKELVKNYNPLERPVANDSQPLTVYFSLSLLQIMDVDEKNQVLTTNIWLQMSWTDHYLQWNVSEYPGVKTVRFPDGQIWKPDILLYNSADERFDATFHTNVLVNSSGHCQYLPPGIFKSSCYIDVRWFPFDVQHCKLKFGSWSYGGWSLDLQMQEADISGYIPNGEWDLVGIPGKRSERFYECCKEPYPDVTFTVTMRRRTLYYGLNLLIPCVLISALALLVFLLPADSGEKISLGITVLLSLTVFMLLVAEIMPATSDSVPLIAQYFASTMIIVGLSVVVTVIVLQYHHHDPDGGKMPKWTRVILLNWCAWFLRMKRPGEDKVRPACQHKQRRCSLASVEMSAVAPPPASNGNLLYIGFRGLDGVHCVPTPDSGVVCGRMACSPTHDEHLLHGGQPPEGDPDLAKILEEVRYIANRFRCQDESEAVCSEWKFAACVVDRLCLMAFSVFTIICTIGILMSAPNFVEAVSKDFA

[3] = target: T1, Neuronal acetylcholine receptor; alpha4/beta2; experiment: Displacement of [3H]cytisine from human alpha4beta2 nAChR; assay type: protein-complex assay
[4] = target: T2, Neuronal acetylcholine receptor subunit alpha-7; experiment: Displacement of [3H]MLA from human alpha7 nAChR
[5] = target: T2, Neuronal acetylcholine receptor subunit alpha-7; experiment: Displacement of [3H]imipramine from human alpha7 nAChR
[6] = target: T1, Neuronal acetylcholine receptor; alpha4/beta2; experiment: Displacement of [3H]imipramine from human alpha4beta2 nAChR; assay type: protein-complex assay

Ratio IC50 (Homo sapiens)	SMILES	IC50 [1] [µM]	IC50 [2] [µM]	Ki [3] [µM]	Ki [4] [µM]	Ki [5] [µM]	Ki [6] [µM]
4.1	COc1cc(Cn2cc(C[N+](C)(C)C)c3ccccc32)ccc1O	9.1	2.2	–	–	–	–
2.8	COc1ccc(Cn2cc(C[N+](C)(C)C)c3ccccc32)cc1O	9.5	3.4	–	–	–	–
6.7	COc1ccc(Cn2cc(C[N+](C)(C)C)c3ccccc32)cc1OC	14.8	2.2	–	–	–	–
11.3	C[N+](C)(C)Cc1cn(Cc2ccc(O)cc2)c2ccccc12	24.9	2.2	0.6	2.9	–	–
–	C[n+]1cccc(Cn2cc(C[N+](C)(C)C)c3ccccc32)c1	> 100	41.3	–	–	–	–
7.4	C[N+](C)(C)Cc1cn(Cc2ccc([N+](C)(C)C)cc2)c2ccccc12	20	2.7	–	–	–	–

SMILES	Ratio IC50 (Homo sapiens)	IC50 [1] [µM]	IC50 [2] [µM]	Ki [3] [µM]	Ki [4] [µM]	Ki [5] [µM]	Ki [6] [µM]
C[N+](C)(C)Cc1cn(Cc2ccccc2)c2ccccc12	1.9	4.2	2.3	–	–	–	–
C[N+](C)(C)Cc1cn(Cc2ccc3c(c2)OCO3)c2ccccc12	3	3.9	1.3	–	–	–	–
COc1ccc(Cn2cc(C[N+](C)(C)C)c3ccccc32)cc1	2.2	4.4	2	–	–	–	–
C[N+](C)(C)Cc1cn(Cc2cccc(O)c2)c2ccccc12	14.7	14.7	1	1.6	0.6	145	112
